Tests used:
[1] = Animal toxicity profile; details: animals
[2] = Half life in primates; assay type: in vivo
[3] = target: P-glycoprotein (Homo sapiens, UniProt P08183); assay: P-glycoprotein substrate behaviour; assay type: cell-based
[4] = tested on: HT-29 cells; assay: Cytotoxicity on HT-29 cells (XTT); assay type: cell-based; details: cell viability (XTT)
Procedure: HT-29 cells, which are not multidrug-resistant, were grown in DMEM, 10% foetal calf serum, 2 mM glutamine and […] Pen/Strep medium and then washed.
Cells were harvested, counted, and inoculated at the appropriate concentration of 10^4 cells/well (100 μl volume) into 96-well microtiter plates. After 24 h, the drugs were applied to triplicate culture wells, and cultures were incubated for given times at 37° C. XTT was prepared at 1 mg/ml in pre-warmed (37° C.) medium (RPMI 1640) without serum. PMS was prepared at 5 mmol/l (1.53 mg/ml) in PBS. Fresh XTT and PMS were mixed together at appropriate concentrations. For a 25 μmol/l XTT-PMS solution, 25 μl of the 5 mmol/l PMS solution were added per 5 ml of XTT (1 mg/ml). 50 μl of this mixture were added to each well on given time points after cell inoculation. After incubation at 37° C., the plates were mixed on a mechanical plate shaker, and absorbance was measured with an ELISA Reader to determine cell viability.

[5] = tested on: tumour cells; details: cited from earlier work
[6] = Half life in humans; details: human, in vivo
[7] = target: T1, CES1 (Homo sapiens, UniProt P23141); assay: Conversion of CAP7.1 to etoposide by CES1 (HPLC); assay type: in vitro ADME; details: 5 μM CAP7.1, sodium phosphate pH 7.4, 37° C.
T1 sequence (P23141 18-567): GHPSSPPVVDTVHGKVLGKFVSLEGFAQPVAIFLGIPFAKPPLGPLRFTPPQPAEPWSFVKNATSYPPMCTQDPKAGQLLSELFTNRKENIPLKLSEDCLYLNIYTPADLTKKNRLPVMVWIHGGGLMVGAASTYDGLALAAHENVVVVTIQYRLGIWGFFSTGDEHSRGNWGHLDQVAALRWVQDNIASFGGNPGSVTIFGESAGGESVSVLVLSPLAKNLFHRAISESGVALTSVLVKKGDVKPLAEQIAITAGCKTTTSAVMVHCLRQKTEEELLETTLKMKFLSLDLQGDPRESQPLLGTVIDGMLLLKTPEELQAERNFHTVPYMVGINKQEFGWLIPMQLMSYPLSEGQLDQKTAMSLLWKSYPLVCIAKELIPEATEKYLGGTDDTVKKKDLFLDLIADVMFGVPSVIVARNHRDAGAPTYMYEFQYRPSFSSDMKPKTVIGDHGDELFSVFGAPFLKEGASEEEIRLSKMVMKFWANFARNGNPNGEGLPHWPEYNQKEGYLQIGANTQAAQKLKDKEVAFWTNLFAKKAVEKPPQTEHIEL
Procedure: (§1) 5 μM CAP7.1 was pre-incubated for 3 min in 999 μl 0.1 mol/l) sodium phosphate (NaH2PO4, Roth, Karlsruhe, Germany) pH 7.4 at 37° C. After that, CES1, CES2 and CES3, respectively, were added. Controls were incubated with 10% foetal calf serum (FCS, positive control) or in buffer (negative control). At different time points, aliquots were subjected to HPLC in order to analyse the formed products.

[8] = tested on: topoisomerase II α; assay: Topoisomerase II alpha mRNA expression in U937 cells (PCR); assay type: cell-based; details: 24 h
Procedure: (§2) One of the controls involved the treatment of the cells with 0.05% (1 μl) DMSO. Untreated cells are also shown as a control.
(§3) After an incubation time of 24 h, expression was analysed by determining mRNA levels by real-time PCR. In the respective lanes of FIG. 2, the bands for topoisomerase II α (322 bp), topoisomerase II β (304 bp) and the GAPDH control (358 bp) are shown. In the H2O control lane, showing the results of the H2O control sample, no bands were observed.

[9] = Cardiovascular telemetry study; assay type: in vivo, cynomolgus monkeys; details: conscious monkeys, single intravenous 30-minute infusion
Source text: The objective of this study was to evaluate the potential modifications of cardiovascular function and cardiac electrophysiology by CAP7.1. The intravenous route was selected, as it is the intended mode of administration in human therapeutic use.
A total of four cynomolgus monkeys (two males and two females) were implanted with telemetric devices and allocated to a single group. They received a single dose of the vehicle (Cremophor/ethanol/NaCl) or CAP7.1, by intravenous 30-minute infusion. Cardiovascular parameters were monitored up to 24 hours following single infusion. The cardiovascular parameters evaluated in this study included heart rate, diastolic, systolic and mean arterial pressure, and duration of the PQ, QRS and QT intervals.

[10] = target: T2, CES2 (Homo sapiens, UniProt O00748); assay: Conversion of CAP7.1 to etoposide by CES2 (HPLC); assay type: in vitro ADME; details: 5 μM CAP7.1, sodium phosphate pH 7.4, 37° C.
T2 sequence (O00748 27-559): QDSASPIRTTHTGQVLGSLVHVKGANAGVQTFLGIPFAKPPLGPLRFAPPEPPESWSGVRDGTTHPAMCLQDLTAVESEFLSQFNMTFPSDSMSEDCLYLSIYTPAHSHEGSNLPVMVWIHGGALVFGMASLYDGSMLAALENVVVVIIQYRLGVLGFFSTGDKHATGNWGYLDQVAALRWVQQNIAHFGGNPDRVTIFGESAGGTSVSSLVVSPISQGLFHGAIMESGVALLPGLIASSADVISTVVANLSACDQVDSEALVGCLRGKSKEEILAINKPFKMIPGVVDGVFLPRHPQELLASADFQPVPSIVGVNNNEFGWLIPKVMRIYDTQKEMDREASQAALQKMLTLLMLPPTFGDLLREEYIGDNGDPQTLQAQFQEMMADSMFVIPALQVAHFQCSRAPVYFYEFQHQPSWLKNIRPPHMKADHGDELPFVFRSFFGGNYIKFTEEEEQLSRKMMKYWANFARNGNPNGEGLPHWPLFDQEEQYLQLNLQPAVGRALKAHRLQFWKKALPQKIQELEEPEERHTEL
Procedure: as §1

[11] = target: T3, MDR-1 gene product (P-glycoprotein) (Homo sapiens, UniProt P08183); assay: Functional MDR-1 assay with JC-1 in Kelly cells (flow cytometry); assay type: cell-based; details: for intracellular JC-1 signal versus DMSO control (MDR-1-mediated substrate efflux): Kelly cells, 10^−4 mol/l, 15 min
T3 construct: endogenous in cells; host or cells: Kelly
Procedure: By means of an assay using JC-1, MDR-1 activity was assessed in Kelly cells, which express MDR-1. JC-1 is a cationic staining dye which is taken up by living cells. JC-1 is recognized by the MDR-1 gene product (P-glycoprotein) and pumped to the outside of the cell (substrate efflux). Thus, MDR-1 activity is indicated by a reduction in intracellular JC-1 signal.
Kelly cells grown in RPMI medium were washed and resuspended at a concentration of 10^6 cells/ml in solutions containing JC-1 in a final concentration of 50 nmol/l. […] The control contained 1 μl (0.05%) DMSO. Cells were analysed for JC-1 staining in a FACScanto II flow cytometer.

[12] = tested on: NSX2 tumour xenografts; assay: NSX2 tumour xenograft model; assay type: in vivo; details: mice bearing NSX2 tumour xenografts (MDR-mediated etoposide-resistant)
Source text: The lack of cross-resistance to CAP7.1 of MDR-mediated etoposide-resistant cell lines in vitro was confirmed in vivo in mice bearing NSX2 tumour xenografts.

[13] = mouse, in vivo
[14] = tested on: U937 cells; assay: Cell cycle analysis in multidrug-resistant U937 cells (propidium iodide); assay type: cell-based; details: 18 h, 24 h and 48 h, CAP7.1, etoposide 10^−4 mol/l
Procedure: The cells were incubated for 48 h. After 18 h, 24 h and 48 h of incubation, respectively, cell cycle analysis was performed as follows:
Cells were washed once with CellWash, fixed with fridge-cold 70% Ethanol for 30 min at 4° C. and washed three times. RNA was digested with RNAse A (100 μg/ml in PBS) for 10 min at room temperature. Cells were washed once with CellWash and stained with propidium iodide (50 μg/ml in PBS) for 5 min at room temperature in the dark. Cells were analyzed immediately by flow cytometry using a FACScanto II apparatus.

[15] = Combination therapy with carboplatin in children with advanced neuroblastoma; assay type: in vivo, human; details: human; plasma, one of the children treated
Procedure: (§4) CAP7.1 was administered with carboplatin to three children with heavily pre-treated advanced neuroblastoma.
(§5) Cycles were repeated every 21 days and a total of 4 cycles were administered in each patient. Toxicity was mainly haematological, grade 1-2 at 200 mg/m^2 and increased to grade 3-4 in the rest of the cycles, but cycle delay due to toxicity was not necessary.

[16] = tested on: advanced neuroblastoma; assay: as above; assay type: in vivo, human
Procedure: as §4, §5

[17] = Half life in mice; details: mouse, in vivo; mice with high levels of carboxylesterases
[18] = target: T4, CES3 (Homo sapiens, UniProt Q6UWW8); assay: Conversion of CAP7.1 to etoposide by CES3 (HPLC); assay type: in vitro ADME; details: 5 μM CAP7.1, sodium phosphate pH 7.4, 37° C.
T4 sequence (Q6UWW8 27-571): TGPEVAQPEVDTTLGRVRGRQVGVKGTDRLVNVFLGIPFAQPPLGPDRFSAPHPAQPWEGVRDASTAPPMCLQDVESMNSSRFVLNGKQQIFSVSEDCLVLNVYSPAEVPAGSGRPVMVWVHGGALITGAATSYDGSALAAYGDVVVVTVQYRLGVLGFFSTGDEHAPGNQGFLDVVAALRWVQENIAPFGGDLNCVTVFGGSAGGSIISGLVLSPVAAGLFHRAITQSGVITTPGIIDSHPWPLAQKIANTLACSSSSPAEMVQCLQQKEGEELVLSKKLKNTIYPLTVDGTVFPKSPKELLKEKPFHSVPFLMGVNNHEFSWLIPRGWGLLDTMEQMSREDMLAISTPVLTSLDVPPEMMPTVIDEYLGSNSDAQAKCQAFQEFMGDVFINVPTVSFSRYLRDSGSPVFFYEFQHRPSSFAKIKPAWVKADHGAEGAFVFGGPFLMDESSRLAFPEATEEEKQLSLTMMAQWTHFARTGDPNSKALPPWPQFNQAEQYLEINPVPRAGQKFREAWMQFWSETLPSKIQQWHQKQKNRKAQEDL
Procedure: as §1

[19] = Stability in sodium phosphate buffer (negative control); assay type: physicochemical; details: sodium phosphate pH 7.4, 37° C.
Procedure: as §1

[20] = tested on: topoisomerase II β; assay: Topoisomerase II beta mRNA expression in U937 cells (PCR); assay type: cell-based; details: 10^4 mol/l, 24 h
Procedure: as §2, §3

[21] = Side effects in preclinical and clinical studies; assay type: in vivo
[22] = tested on: tumours that were metastatic and/or that reduced the function of at least one organ; assay: Phase I/IIa safety/efficacy study in patients with metastatic and/or organ-function-reducing tumours
Procedure: Nine heavily pre-treated patients were recruited to a combined Phase I/IIa safety/efficacy study. The patients had tumours that were metastatic and/or that reduced the function of at least one organ.
In all patients, the tumours were clinically assessed and the history of their disease was recorded. Tumour markers were determined.
A cycle of treatment consisted of CAP7.1 administration by infusion on 5 consecutive days, followed by an intermittent period of 16 days in which no CAP7.1 was administered. […] The first cohort (patients 1-3, 8 cycles in total) received CAP7.1 at a daily dose of 45 mg/m^2, the second cohort (patients 4-6, 9 cycles in total) at a daily dose of 90 mg/m^2 and the third cohort (patients 7-9) at a daily dose of 150 mg/m^2.

[23] = Time course of apoptosis induction; assay type: cell-based

T3 sequence (P08183 whole entry): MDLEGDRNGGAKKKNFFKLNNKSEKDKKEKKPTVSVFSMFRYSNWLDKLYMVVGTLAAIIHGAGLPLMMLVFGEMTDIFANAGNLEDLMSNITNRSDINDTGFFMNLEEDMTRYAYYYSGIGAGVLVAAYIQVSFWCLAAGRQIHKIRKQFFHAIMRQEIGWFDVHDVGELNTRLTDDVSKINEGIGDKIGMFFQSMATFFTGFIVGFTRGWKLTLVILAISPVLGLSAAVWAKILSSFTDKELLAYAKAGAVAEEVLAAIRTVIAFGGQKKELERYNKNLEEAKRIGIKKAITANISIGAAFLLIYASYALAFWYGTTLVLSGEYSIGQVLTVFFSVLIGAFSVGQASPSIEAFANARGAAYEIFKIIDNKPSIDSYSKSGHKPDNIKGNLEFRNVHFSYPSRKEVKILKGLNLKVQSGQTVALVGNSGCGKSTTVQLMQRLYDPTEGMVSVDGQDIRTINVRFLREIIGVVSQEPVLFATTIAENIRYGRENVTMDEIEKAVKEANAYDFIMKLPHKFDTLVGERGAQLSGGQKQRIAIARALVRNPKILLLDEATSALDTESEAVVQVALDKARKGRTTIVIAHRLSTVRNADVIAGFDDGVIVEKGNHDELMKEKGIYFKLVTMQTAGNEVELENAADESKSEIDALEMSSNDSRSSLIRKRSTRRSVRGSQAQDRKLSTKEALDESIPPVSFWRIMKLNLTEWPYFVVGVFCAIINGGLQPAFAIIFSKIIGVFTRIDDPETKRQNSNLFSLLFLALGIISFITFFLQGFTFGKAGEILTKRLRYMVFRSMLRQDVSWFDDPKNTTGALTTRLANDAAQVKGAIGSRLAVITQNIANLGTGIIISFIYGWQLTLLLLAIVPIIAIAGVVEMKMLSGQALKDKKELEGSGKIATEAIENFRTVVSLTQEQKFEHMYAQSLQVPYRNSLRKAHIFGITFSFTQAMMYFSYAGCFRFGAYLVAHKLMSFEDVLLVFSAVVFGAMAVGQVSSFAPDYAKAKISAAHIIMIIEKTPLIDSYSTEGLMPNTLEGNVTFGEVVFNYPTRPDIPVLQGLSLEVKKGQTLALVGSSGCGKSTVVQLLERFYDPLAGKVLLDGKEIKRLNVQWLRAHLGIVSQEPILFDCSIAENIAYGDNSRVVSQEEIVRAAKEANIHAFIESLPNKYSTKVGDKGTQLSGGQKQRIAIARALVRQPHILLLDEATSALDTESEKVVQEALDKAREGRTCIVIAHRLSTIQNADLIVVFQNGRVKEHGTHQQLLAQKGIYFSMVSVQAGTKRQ
Sequence of P-glycoprotein (P08183 whole entry): as above

With `COc1cc([C@@H]2c3cc4c(cc3C(OC3OC5COC(C)OC5C(O)C3O)C3COC(=O)[C@@H]32)OCO4)cc(OC)c1OC(=O)OCC(O)CO` (some centres unmarked) [CAP7.1] the “main toxicity at sublethal dose” value [1] was “bone marrow suppression affecting predominantly neutrophils and red cells”, the weight loss [1] was “do not” and the tooth damage ([1]; high dose group) was “reversible tooth damage”. The “half life compared with mice” value [2] was “longer”, the “substrate for P-glycoprotein / efflux from cells” value [3] was “not a substrate for P-glycoprotein” and the “IC50 value of CAP7.1 lower than IC50 value of etoposide” value [4] was 10 fold. For the same molecule, the “potency relative to etoposide, e.g. cytotoxicity on tumour cells” value [5] was “up to 1000 times”, the half-life [6] was 15 to 30 min and the “cleavage of CAP7.1 to etoposide by CES1” value [7] was “efficiently cleaves”. For the same molecule, the “expression of topoisomerase II α (mRNA)” value [8] was “significant decrease”, the arrhythmias [9] was “No arrhythmias” and the “modifications in the cardiac electrophysiological parameters” value ([9]; up to 24 hours) was “no relevant modifications”. For the same molecule, the “cleavage of CAP7.1 to etoposide by CES2” value [10] was “as efficiently as the positive control FCS”, the “intracellular JC-1 signal versus DMSO control (MDR-1-mediated substrate efflux)” value [11] was “increased” and the “tumour growth compared to control” value [12] was “clear inhibition of tumour growth”. For the same molecule, the LD10 [13] was 360 mg/m^2, the “fraction of cells in G2 phase with increasing incubation times” value [14] was “increase” and the Cmax [15] was 3.7 µg/mL. For the same molecule, the half-life [15] was 12 to 30 min, the haematological toxicity grade ([16]; CAP7.1 200 mg/m^2 day 1 with carboplatin 150 mg/m^2 days 2-5) was 1-2 grade and the haematological toxicity grade ([16]; rest of the cycles (CAP7.1 400, 600 and 800 mg/m^2) with carboplatin) was 3-4 grade. For the same molecule, the tumour response ([16]; two of the three patients, with carboplatin) was “evidences of tumour shrinkage”, the half-life [17] was < 5 min and the “cleavage of CAP7.1 to etoposide by CES3” value [18] was “substantially no cleavage”. For the same molecule, the “stability in buffer (negative control)” value [19] was “stable”, the “expression of topoisomerase II β (mRNA)” value [20] was “significant decrease” and the “side effects compared with etoposide” value [21] was “fewer side effects than etoposide”. The “tolerability of the therapy” value ([22]; all nine patients, 45, 90 or 150 mg/m^2 daily on 5 consecutive days per cycle) was “tolerated the therapy well without major adverse reactions”, the “clinical response after the second cycle of treatment” value ([22]; patients 1, 3, 4, 6, 8 and 9 of nine) was “stagnation of the disease” and the “total dose per cycle tolerated without toxicity” value ([22]; patients 1 to 6) was 450 mg/m^2. The “time after which apoptosis is complete” value [23] was 120 h.
For `COc1cc([C@@H]2c3cc4c(cc3[C@@H](O[C@@H]3O[C@@H]5CO[C@@H](C)O[C@H]5[C@H](O)[C@H]3O)[C@H]3COC(=O)[C@H]23)OCO4)cc(OC)c1O` [etoposide, reference compound], the weight loss [1] was “significant weight loss”, the “substrate for P-glycoprotein / efflux from cells” value [3] was “pumped out of the cells” and the “expression of topoisomerase II α (mRNA)” value [8] was “significant decrease”. The “intracellular JC-1 signal versus DMSO control (MDR-1-mediated substrate efflux)” value [11] was “identical”, the “effect on the MDR-1 gene product P-glycoprotein” value ([11]; general statement) was “ineffective on P-glycoprotein” and the “fraction of cells in G2 phase with increasing incubation times” value [14] was “reduction”. The “expression of topoisomerase II β (mRNA)” value [20] was “significant decrease”.

Source: patent publication US9889147B2 (CELLACT PHARMA GMBH, priority 2010, dated 2018)
